From patent publication US20140135310A1, “SULPHONAMIDE DERIVATIVES OF ALICYCLIC AMINES FOR THE TREATMENT OF CENTRAL NERVOUS SYSTEM DISEASES” (Adamed Sp. z o.o., priority 2011, published 2014)

Key:
[1] = test system: α1 adrenergic receptors (rat cerebral cortex); experiment: Radioligand binding assay, adrenergic α1 receptors; details: test compound 1×10^−6 M
Method in brief: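 Values derive from radioligand displacement, with non-specific binding defined by excess cold ligand and detection by scintillation. Hill-fit IC50s were converted to Ki via Cheng-Prusoff using Scatchard-derived Kd; percent inhibition of control specific binding also reported.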

5-HT2C receptor = target: T1, 5-HT2C receptor (Homo sapiens, UniProt P28335); experiment: Radioligand binding assay, serotoninergic 5-HT2C receptors; details: test compound 1×10^−6 M
T1 construct: expressed in transfected cells; host or cells: HEK-293 cells
T1 sequence (P28335 33-458): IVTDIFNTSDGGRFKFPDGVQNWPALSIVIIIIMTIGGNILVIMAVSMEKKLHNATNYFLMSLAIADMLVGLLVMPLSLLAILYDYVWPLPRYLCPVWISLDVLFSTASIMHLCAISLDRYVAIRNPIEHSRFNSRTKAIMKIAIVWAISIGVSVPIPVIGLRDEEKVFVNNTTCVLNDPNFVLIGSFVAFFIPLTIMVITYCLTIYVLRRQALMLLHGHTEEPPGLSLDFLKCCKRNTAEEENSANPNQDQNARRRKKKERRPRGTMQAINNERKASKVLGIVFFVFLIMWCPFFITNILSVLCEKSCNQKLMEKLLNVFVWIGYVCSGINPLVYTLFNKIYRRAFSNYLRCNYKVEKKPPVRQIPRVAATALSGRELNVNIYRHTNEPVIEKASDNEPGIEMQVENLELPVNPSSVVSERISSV
From the text: (§1) The specific ligand binding to the receptors is defined as the difference between the total binding and the non-specific binding determined in the presence of the excess of unlabelled ligand.
(§2) The results are expressed as a percent of control specific binding ((measured specific binding/control specific binding)×100) and as a percent inhibition of control specific binding (100−((measured specific binding/control specific binding)×100)) obtained in the presence of the test compounds. The specific ligand binding to the receptors is defined as the difference between the total binding and the nonspecific binding determined in the presence of an excess of unlabelled ligand. Scintillation counting was the method of detection of ligand binding. The IC50 values (concentration causing a half-maximal inhibition of control specific binding) were determined by non-linear regression analysis of the competition curves generated with mean replicate values using Hill equation curve fitting (Y=D+[(A−D)/(1+(C/C50)nH)], where Y=specific binding, D=minimum specific binding, A=maximum specific binding, C=compound concentration, C50=IC50, and nH=slope factor). This analysis was performed using a software developed at Cerep (Hill software) and validated by comparison with data generated by the commercial software SigmaPlot® 4.0 for Windows® (© 1997 by SPSS Inc.). The inhibition constants (Ki) were calculated using the Cheng Prusoff equation (Ki=IC50/(1+(L/KD)), where L=concentration of radioligand in the assay, and KD=affinity of the radioligand for the receptor). A scatchard plot was used to determine the Kd.
Experimental conditions for tests are given in Table 4, and results of tests for representative compounds of the invention are given in Table 5a and 5b (receptors 5-HT1A, 5-HT2A, 5-HT6 and 5-HT7) and in Table 6 (receptors 5-HT2C).

5-HT6 receptor = target: T2, 5-HT6 receptor (Homo sapiens, UniProt P50406); experiment: Radioligand binding assay, serotoninergic 5-HT6 receptors; details: for inhibition at 1 µM / 5-HT6 [%]: binding assay result in %, Table 5a; for Ki: read-out: Inhibition constants Ki, 5-HT6;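 on 5-HT6 [%]: test compound at 1 µM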
T2 construct: purchased PerkinElmer
Method in brief: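 Values are Ki from Cheng–Prusoff, taking IC50 from Hill nonlinear regression of competition curves and KD from a Scatchard plot. Specific binding was total minus binding with excess unlabelled ligand. Radioligand displacement was detected by scintillation counting, and data were also reported as percent of control specific binding.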

[2] = target: dopaminergic receptors D3 (Homo sapiens, UniProt P35462); experiment: Radioligand binding assay, dopaminergic D3 receptors; details: test compound 1×10^−6 M
Method in brief: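 Scintillation read-out. Specific = total − nonspecific (excess cold ligand). Data as % of control specific binding / % inhibition; IC50 by Hill fit; Ki = IC50/(1+L/KD), KD from Scatchard plot.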

[3] = target: T3, 5-HT1A receptor (rat hippocampus) (Rattus norvegicus, UniProt P19327); experiment: Radioligand binding assay, serotoninergic 5-HT1A receptors; details: binding assay result in %, Table 5a;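 further: test compound at 1 µM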
T3 construct: hippocampus; from tissue; host or cells: rat hippocampus
T3 sequence (P19327 1-422): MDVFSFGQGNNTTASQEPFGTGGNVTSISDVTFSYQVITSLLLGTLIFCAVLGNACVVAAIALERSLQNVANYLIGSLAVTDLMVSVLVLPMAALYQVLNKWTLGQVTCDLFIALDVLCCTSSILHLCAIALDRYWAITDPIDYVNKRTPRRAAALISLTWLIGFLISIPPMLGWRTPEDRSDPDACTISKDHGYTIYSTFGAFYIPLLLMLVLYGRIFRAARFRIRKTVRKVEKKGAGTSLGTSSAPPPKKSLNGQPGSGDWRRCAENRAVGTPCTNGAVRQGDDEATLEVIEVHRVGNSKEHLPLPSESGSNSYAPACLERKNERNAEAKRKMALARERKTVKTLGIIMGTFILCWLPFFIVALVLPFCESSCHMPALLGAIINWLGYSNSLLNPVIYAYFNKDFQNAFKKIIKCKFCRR

M3 muscarinic receptors = target: T4, M3 muscarinic receptors (Homo sapiens, UniProt P20309); experiment: Radioligand binding assay, muscarinic M3 receptors; details: test compound 1×10^−6 M
T4 construct: expressed in transfected cells; host or cells: CHO cells
From the text: as §1, §2
Experimental conditions for tests are given in Table 10, and results of tests for representative compounds are given in Table 11.

dopaminergic receptors D3, sequence (P35462 whole entry): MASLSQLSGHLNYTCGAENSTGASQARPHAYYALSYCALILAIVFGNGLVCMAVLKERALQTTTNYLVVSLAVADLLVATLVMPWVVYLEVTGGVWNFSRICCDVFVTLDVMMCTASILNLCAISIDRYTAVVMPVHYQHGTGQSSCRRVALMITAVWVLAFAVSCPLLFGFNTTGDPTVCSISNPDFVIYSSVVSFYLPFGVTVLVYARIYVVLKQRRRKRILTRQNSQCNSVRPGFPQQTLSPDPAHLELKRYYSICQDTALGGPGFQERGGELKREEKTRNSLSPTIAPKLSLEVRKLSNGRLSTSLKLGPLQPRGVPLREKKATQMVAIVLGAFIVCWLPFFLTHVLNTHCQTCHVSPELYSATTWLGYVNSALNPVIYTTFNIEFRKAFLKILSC
T4 sequence (P20309 whole entry): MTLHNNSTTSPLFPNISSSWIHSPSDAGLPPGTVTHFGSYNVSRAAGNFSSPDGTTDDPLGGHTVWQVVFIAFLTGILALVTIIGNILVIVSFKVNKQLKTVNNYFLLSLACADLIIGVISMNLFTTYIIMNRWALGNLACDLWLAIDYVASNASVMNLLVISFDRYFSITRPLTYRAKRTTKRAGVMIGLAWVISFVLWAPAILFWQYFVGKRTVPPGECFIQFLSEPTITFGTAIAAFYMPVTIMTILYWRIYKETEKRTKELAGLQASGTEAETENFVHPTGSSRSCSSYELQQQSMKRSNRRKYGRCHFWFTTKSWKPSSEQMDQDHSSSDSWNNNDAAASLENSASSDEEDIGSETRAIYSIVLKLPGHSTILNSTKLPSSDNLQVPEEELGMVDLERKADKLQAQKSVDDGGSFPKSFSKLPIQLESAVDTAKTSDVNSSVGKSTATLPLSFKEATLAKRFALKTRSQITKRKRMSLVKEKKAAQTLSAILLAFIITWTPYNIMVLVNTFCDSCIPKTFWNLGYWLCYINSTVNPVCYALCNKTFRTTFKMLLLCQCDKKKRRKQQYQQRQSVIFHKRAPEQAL
T2 sequence (P50406 whole entry): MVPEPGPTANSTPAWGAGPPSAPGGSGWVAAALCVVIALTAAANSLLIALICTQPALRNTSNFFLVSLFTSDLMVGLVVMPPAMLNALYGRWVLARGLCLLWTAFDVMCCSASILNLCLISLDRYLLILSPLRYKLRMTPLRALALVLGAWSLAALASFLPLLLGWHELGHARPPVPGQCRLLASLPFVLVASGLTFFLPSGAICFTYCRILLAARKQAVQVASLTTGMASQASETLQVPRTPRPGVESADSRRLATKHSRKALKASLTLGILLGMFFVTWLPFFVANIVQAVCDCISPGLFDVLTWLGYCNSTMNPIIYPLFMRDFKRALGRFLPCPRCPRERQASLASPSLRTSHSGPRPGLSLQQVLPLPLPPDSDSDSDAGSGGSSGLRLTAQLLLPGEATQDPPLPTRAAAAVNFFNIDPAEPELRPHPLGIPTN

| Compound | α1 [%] [1] [%] | inhibition at 1 µM (5-HT2C receptor) [%] | inhibition at 1 µM (5-HT6 receptor) [%] | Ki (5-HT6 receptor) [nM] | inhibition at 1 µM [2] [%] | inhibition at 1 µM [3] [%] | inhibition at 1 µM (M3 muscarinic receptors) [%] | 5-HT2C [%] (5-HT2C receptor) | 5-HT6 [%] (5-HT6 receptor) | D3 [%] [2] [%] | 5-HT1A [%] [3] [%] | M3 [%] (M3 muscarinic receptors) |
| --- | --- | --- | --- | --- | --- | --- | --- | --- | --- | --- | --- | --- |
| O=S(=O)(N[C@@H]1CCN(CCCc2noc3cc(F)ccc23)C1)c1cc2ccccc2s1 [Compound 196, N-[(3R)-1-[3-(6-Fluoro-1,2-benzoxazol-3-yl)propyl]pyrrolidin-3-yl]benzo-thiophene-2-sulphonamide] | 95 | 86 | 99 | 6.4 | 94 | 54 | 11 | – | – | – | – | – |
| O=S(=O)(NC1CCN(CCCc2noc3cc(F)ccc23)C1)c1ccc2cc(Cl)ccc2c1 (stereo not drawn) [Compound 23, 6-Chloro-N-[1-[3-(6-fluoro-1,2-benzoxazol-3-yl)propyl]pyrrolidin-3-yl]naphthalene-2-sulphonamide] | 64 | 67 | 97 | – | 95 | 24 | 10 | – | – | – | – | – |
| O=S(=O)(NC1CCN(CCCc2c[nH]c3ccc(Cl)cc23)C1)c1cccc(F)c1 (stereo not drawn) [Compound 82, N-[1-[3-(5-Chloro-1H-indol-3-yl)propyl]pyrrolidin-3-yl]-3-fluoro-benzene-sulphonamide] | 43 | 82 | 93 | 37 | 94 | 99 | 9 | – | – | – | – | – |
| O=S(=O)(NC1CCN(CCCc2noc3cc(F)ccc23)CC1)c1cccc2ccccc12 [Compound 34, N-[1-[3-(6-Fluoro-1,2-benzoxazol-3-yl)propyl]-4-piperidine]-naphthalene-1-sulphonamide] | 91 | 94 | 40 | – | 58 | 32 | 12 | – | – | – | – | – |
| N-[[1-[2-[(2,2-Dimethyl-3H-benzofuran-7-yl)oxy]ethyl]azetidin-3-yl]methyl]-3-hydroxy-benzenesulphonamide [Compound 111] | 68 | – | – | – | – | – | – | 87 | 41 | 87 | 99 | 14 |
| Cc1cccc(S(=O)(=O)NC2CN(CCOc3cccc4c3OCCO4)C2)c1 [Compound 93, N-[1-[2-(2,3-Dihydro-1,4-benzodioxan-8-yloxy)ethyl]azetidin-3-yl]-3-methyl-benzenesulphonamide] | 52 | – | – | – | – | – | – | 50 | 29 | 75 | 98 | 1 |
| Cc1c(S(=O)(=O)N[C@H]2CCN(CCCc3noc4cc(F)ccc34)C2)sc2ccc(Cl)cc12 [Compound 205, 5-Chloro-N-[(3S)-1-[3-(6-fluoro-1,2-benzoxazol-3-yl)propyl]pyrrolidin-3-yl]-3-methyl-benzothiophene-2-sulphonamide] | 71 | 86 | 94 | 41 | 99 | 63 | 3 | – | – | – | – | – |
| O=S(=O)(N[C@@H]1CCN(CCCc2noc3cc(F)ccc23)C1)c1cc2ccccc2o1 [Compound 214, N-[(3R)-1-[3-(6-Fluoro-1,2-benzoxazol-3-yl)propyl]pyrrolidin-3-yl]benzo-furan-2-sulphonamide] | 91 | 65 | 97 | 7.5 | 89 | 34 | 11 | – | – | – | – | – |
| O=S(=O)(NC1CCN(CCCc2noc3cc(F)ccc23)C1)c1cccc2ccccc12 (stereo not drawn) [Compound 20, N-[1-[3-(6-Fluoro-1,2-benzoxazol-3-yl)propyl]pyrrolidin-3-yl]naphthalene-1-sulphonamide] | 86 | 33 | 97 | – | 69 | 67 | -7 | – | – | – | – | – |
| CC1(C)Cc2cccc(OCCN3CCC(NS(=O)(=O)c4cccc(O)c4)CC3)c2O1 [Compound 109, N-[1-[2-[(2,2-Dimethyl-3H-benzofuran-7-yl)oxy]ethyl]-4-piperidine]-3-hydroxy-benzenesulphonamide] | 44 | – | – | – | – | – | – | – | 67 | 86 | 96 | 3 |
| O=S(=O)(N[C@H]1CCN(CCCc2noc3cc(F)ccc23)C1)c1ccc2ccccc2c1 [Compound 207, N-[(3S)-1-[3-(6-Fluoro-1,2-benzoxazol-3-yl)propyl]pyrrolidin-3-yl]-naphthalene-2-sulphonamide] | 95 | – | 101 | 7.7 | 85 | 58 | 12 | – | – | – | – | – |
| O=S(=O)(NC1CCN(CCCc2c[nH]c3ccc(F)cc23)C1)c1cccc2ccccc12 (stereo not drawn) [Compound 79, N-[1-[3-(5-Fluoro-1H-indol-3-yl)propyl]pyrrolidin-3-yl]naphthalene-1-sulphonamide] | 37 | – | 86 | – | 97 | 99 | -3 | – | – | – | – | – |
| O=S(=O)(NC1CCN(CCOc2cccc3ccccc23)C1)c1cccc(O)c1 (stereo not drawn) [Compound 115, 3-Hydroksy-N-[1-[2-(1-naphthyloxy)ethyl]pyrrolidin-3-yl]benzenesulphonamide] | 24 | – | – | – | – | – | – | – | 88 | 97 | 100 | 13 |
| Cc1ccc2sc(S(=O)(=O)N[C@H]3CCN(CCCc4noc5cc(F)ccc45)C3)cc2c1 [Compound 229, N-[(3S)-1-[3-(6-Fluoro-1,2-benzoxazol-3-yl)propyl]pyrrolidin-3-yl]-5-methylbenzothiophene-2-sulphonamide] | 89 | – | 98 | 43 | 93 | 46 | 15 | – | – | – | – | – |
| Cc1c(S(=O)(=O)NCC2CCN(CCCc3noc4cc(F)ccc34)C2)sc2ccc(Cl)cc12 (stereo not drawn) [Compound 238, 5-Chloro-N-[[1-[3-(6-fluoro-1,2-benzoxazol-3-yl)propyl]pyrrolidin-3-yl]methyl]-3-methyl-benzothiophene-2-sulphonamide] | 82 | – | 96 | 17 | 95 | 71 | 26 | – | – | – | – | – |
| Cn1ccc2cc(S(=O)(=O)NC3CCN(CCCc4noc5cc(F)ccc45)C3)ccc21 (stereo not drawn) [Compound 218, N-[1-[3-(6-Fluoro-1,2-benzoxazol-3-yl)propyl]pyrrolidin-3-yl]-1-methyl-indole-5-sulphonamide] | – | 82 | 95 | – | 95 | 91 | 0 | – | – | – | – | – |
